Test results taken from patent US7652028B2, “Indenoisoquinolinone analogs and methods of use thereof” (Inotek Pharmaceuticals Corporation, priority 2005, dated 2010).

Molecular target: T1, PARP (Homo sapiens, UniProt P09874)
T1 construct: endogenous in cells; host or cells: A549 human alveolar epithelial adenocarcinoma cells
Test: PARP activity in hydrogen peroxide-stimulated A549 cells, whole-cell based assay (3H-NAD+ incorporation)
Conditions: 15 min pretreatment (10 nM-300 nM), hydrogen peroxide-induced PARP activation, from dose-response curve
Experimental: Human alveolar epithelial cells (A549), an adenocarcinoma cell line with the alveolar type 2 phenotype were cultured in […] medium supplemented with 10% fetal bovine serum. Cells were grown to 80% confluence in 12-well plates and pretreated with various concentrations (10 nM-300 nM) of an Indenoisoquinolinone Analog for 15 minutes. Hydrogen peroxide, a prototypical oxidant that induces DNA single strand breakage, was used to induce PARP activation. Hydrogen peroxide was diluted in culture media and added to the cells in a bolus of 20 μl. After 20 minutes of incubation, the medium was aspirated and 0.5 mL of assay buffer (56 mM HEPES pH 7.5, 28 mM KCl, 28 mM NaCl, 2 mM MgCl2, 0.01% w/v digitonin and 0.5 μCi/ml 3H-NAD^+) was added to cells. Following incubation in the assay buffer (15 minutes at 37° C.), PARP activity was measured. Cells were scraped from the plate, transferred to a 1.5 mL eppendorf tube and then added 200 μl of ice cold 50% w/v TCA. […] The contents of the tubes were added to 6.5 mL ScintiSafe Plus scintillation liquid (Fisher Scientific) and radioactivity was determined using a liquid scintillation counter (Wallac, Gaithersburg, Md.). […] EC50 values were determined from a dose-response curve. IC50 values were determined using a commercially available in vitro PARP-1 inhibition assay kit (Trevigen, Gaithersburg, Md., USA).

T1 sequence (P09874 whole entry): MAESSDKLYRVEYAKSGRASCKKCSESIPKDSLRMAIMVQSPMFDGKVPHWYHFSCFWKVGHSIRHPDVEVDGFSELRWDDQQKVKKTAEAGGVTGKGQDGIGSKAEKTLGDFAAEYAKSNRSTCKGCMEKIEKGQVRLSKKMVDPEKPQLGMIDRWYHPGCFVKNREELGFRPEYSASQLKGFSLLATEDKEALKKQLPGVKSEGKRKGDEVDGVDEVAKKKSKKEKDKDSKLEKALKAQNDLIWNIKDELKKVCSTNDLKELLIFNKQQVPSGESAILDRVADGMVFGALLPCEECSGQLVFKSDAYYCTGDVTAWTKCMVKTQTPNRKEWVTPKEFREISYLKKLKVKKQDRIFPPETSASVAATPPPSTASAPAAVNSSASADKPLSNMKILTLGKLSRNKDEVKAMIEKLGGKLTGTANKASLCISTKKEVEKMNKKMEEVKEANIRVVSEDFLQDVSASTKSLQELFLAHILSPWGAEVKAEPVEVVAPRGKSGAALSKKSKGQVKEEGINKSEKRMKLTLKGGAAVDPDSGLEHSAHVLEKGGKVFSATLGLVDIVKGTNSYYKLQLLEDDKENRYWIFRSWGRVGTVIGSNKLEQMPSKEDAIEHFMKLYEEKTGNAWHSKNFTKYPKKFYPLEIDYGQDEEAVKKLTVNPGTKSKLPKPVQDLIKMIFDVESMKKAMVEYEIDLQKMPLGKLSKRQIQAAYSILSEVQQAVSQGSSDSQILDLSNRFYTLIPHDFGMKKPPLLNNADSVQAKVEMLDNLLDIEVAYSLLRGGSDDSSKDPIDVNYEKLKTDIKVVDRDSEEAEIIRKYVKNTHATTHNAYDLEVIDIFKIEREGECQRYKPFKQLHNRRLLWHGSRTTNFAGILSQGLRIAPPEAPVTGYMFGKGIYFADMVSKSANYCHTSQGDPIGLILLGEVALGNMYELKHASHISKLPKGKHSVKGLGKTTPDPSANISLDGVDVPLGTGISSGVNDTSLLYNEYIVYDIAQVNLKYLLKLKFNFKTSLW

`O=c1[nH]c2c(c3ccccc13)Cc1c(CO)cccc1-2` [(I)(25), 10-hydroxymethyl-5,6-dihydro-5-oxo-11-H-indeno[1,2-c]isoquinoline] was tested, and the EC50 was 290 nM.
